Laboratory results: US12410164B2, “Heterocyclic compounds and medical use thereof” (FONDAZIONE TELETHON, priority 2018, dated 2025)

Target: F508del-CFTR (Homo sapiens, UniProt P13569, DEL508-508)
Experiment: HS-YFP kinetic fluorescence (iodide quenching rate) assay in CFBE41o− cells
Type: cell-based
Set-up: expressed in transfected cells; host or cells: CFBE41o- cells with expression of F508del-CFTR and HS-YFP (generated as in Sondo et al. 2011)
Details: for AI additivity index: Table 3; for AI additivity index / AI (%) additivity index: compound at 10 μM plus VX-809
Experimental: CFBE41o- cells, with expression of F508del-CFTR and halogen-sensitive fluorescent protein, were generated as previously described (Sondo E, et al. Am J Physiol. 2011, 301, […]-[…]). For the test, the cells were seeded in 96-well microplates using a culture medium consisting of DMEM and Ham's F12 (1:1) supplemented with 10% foetal bovine serum. After 24 hours from seeding, the cells were treated for another 24 hours with the test compounds dissolved in the culture medium at the desired concentrations. As a negative control, the solvent of the compounds (dimethyl sulfoxide, DMSO) dissolved in the medium with the same dilution ratio (final percentage of DMSO:0.1-0.2%) was used. As a positive control, the corrector VX-809 (Selleck Chemicals, […]) was used at a concentration of 1 μM. After treatment, the medium with the compounds was removed and the cells were stimulated with forskolin (Sigma-Aldrich, F6886) 20 μM plus genistein (Sigma-Aldrich, G6649) 50 μM (in 60 μl of PBS saline) to maximally activate the CFTR channels present in the membrane. In a microplate reader (FLUOstar-Omega, BMG) the fluorescence of the cells in each well was read for 14 seconds, with an injection of 165 μl of a iodide-enriched saline (modified PBS where NaCl, 137 mM, has been replaced with the same concentration of NaI). The iodide transport activity in each well was evaluated by subtraction of the background fluorescence (measured in a well without cells), subsequent normalization with respect to the initial fluorescence and finally by interpolation of the fluorescence quenching phase with an exponential function that allows the derivation of the maximum slope (quenching rate, QR). The activity of the synthesized compounds was initially evaluated on the CFBE41o- cell line with expression of the mutated F508del-CFTR protein described above (Sondo E, et al. Am J Physiol. 2011, 301, […]-[…]). For this purpose, a functional assay based on the fluorescent YFP protein sensitive to halides, HS-YFP, was used (Galietta L J, et al. J Biol Chem. 2001, 276, 19723-19728). The fluorescence of the HS-YFP protein is turned off by iodide. Therefore, if exposed to a solution containing iodide, cells with HS-YFP expression show a quenching speed of the fluorescence which depends on the presence and activity of anionic channels. Under control conditions, the mutated CFTR protein presents a serious defect of stability and maturation, so it remains trapped in the endoplasmic reticulum not reaching the cell surface in enough quantity. In the HS-YFP-based assay, this defect results in a low anion transport capacity and therefore in a low quenching rate (QR). Treatment for a prolonged time (e.g. 24 hours) with a corrector determines an improvement in protein maturation with an increase in the number of CFTR channels present in the membrane and therefore an increase in the flux of iodide and QR. In a first phase, the authors screened about 200 heterocyclic molecules with various nitrogenated tricyclic scaffolds. Conditions previously described have been used for screening (Sondo E, et al. Am J Physiol. 2011, 301, […]-[…]) and reported herein in the Materials and Methods section. A threshold equal to the average value plus three times the standard deviation of the QR of wells without compounds (only DMSO in the culture medium) was used as a criterion for the selection of active compounds.

[1] = Table 1, (QRTOT − QRVX)/QRVX, HS-YFP assay

Chain of F508del-CFTR (P13569 with tags, fused parts or gaps DEL508-508): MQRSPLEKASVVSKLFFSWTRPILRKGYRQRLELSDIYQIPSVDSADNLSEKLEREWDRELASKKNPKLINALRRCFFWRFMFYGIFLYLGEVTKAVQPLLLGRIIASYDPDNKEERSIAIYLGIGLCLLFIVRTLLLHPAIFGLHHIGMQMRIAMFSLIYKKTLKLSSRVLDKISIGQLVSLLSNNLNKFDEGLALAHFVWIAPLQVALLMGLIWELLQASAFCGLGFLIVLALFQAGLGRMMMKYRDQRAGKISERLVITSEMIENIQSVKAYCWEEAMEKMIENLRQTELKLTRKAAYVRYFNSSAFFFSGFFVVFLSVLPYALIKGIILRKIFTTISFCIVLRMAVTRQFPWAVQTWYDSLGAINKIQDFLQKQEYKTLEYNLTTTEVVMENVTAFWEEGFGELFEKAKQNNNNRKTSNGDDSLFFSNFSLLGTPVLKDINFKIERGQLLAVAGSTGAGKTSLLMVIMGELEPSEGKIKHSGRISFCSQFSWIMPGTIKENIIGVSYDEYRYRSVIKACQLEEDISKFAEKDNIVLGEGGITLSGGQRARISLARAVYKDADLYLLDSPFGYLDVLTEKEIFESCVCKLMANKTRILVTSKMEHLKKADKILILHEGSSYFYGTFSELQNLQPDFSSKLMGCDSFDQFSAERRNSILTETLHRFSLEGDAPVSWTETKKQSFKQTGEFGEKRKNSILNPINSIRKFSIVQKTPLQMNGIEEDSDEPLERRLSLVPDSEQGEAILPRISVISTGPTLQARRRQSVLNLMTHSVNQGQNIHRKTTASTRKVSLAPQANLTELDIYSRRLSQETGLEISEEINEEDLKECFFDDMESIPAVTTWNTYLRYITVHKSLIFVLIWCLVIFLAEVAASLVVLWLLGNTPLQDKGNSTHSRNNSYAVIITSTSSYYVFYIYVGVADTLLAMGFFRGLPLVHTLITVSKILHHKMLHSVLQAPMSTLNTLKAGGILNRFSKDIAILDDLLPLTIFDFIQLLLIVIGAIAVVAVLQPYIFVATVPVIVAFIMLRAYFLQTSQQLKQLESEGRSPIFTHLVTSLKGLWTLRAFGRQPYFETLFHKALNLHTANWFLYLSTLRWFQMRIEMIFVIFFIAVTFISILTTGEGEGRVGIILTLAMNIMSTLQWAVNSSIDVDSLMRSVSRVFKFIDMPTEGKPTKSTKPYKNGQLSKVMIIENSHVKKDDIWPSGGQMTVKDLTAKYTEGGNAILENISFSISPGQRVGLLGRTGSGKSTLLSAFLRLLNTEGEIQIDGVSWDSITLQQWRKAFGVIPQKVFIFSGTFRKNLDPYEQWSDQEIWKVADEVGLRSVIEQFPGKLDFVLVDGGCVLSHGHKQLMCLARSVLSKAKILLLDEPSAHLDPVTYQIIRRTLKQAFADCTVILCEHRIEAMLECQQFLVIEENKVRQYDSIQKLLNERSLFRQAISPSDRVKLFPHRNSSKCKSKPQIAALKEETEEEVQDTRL

Row | SMILES | AI (%) additivity index [1] [%] | also measured
1 | CCOC(=O)c1c(Br)c2c(n1Cc1ccc(C)cc1)-c1nc(NS(=O)(=O)c3ccccc3)ncc1CC2 [SVQ10, Ethyl 2-[(benzenesulfonyl)amino]-7-bromo-9-[(4-methylphenyl)methyl]-6,9-dihydro-5H-pyrrolo[3,2-h]quinazoline-8-carboxylate] |  | AI additivity index ((QRTOT-QRVX)/QRVX): 134%
2 | CCOC(=O)c1c(Br)c2c(n1CC1CC1)-c1[nH]c(=O)c(S(=O)(=O)c3ccccc3)cc1CC2 [PP065, Ethyl 7-(benzenesulfonyl)-3-bromo-1-(cyclopropylmethyl)-8-oxo-4,5,8,9-tetrahydro-1H-pyrrolo[3,2-h]quinoline-2-carboxylate] | 284 | 
3 | Cc1cc(=O)oc2c1cc(C)c1occ(C)c12 [TMA, 4,6,4′-trimethylangelicin, reference compound] |  | corrective activity of TMA (50-500 nM, 1 and 10 μM, with and without VX-809 1 μM, FIG. 4): ineffective at all concentrations
4 | CCOC(=O)c1c(Br)c2c(n1Cc1ccccc1C)-c1[nH]c(=O)c(S(=O)(=O)c3ccccc3)cc1CC2 [PP027, Ethyl 3-bromo 1-(2-methylbenzyl)-8-oxo-7-(phenylsulfonyl)-4,5,8,9-tetrahydro-1H-pyrrolo[3,2-h]quinoline-2-carboxylate] | 185 | structure-activity comparison of corrector potency/activity (relative to the analogue): potency comparable to that of PP008
5 | CCOC(=O)c1c2c(nn1Cc1ccc(C)c(C)c1)-c1[nH]c(=O)c(S(=O)(=O)c3ccccc3)cc1CC2 [PZ8, Ethyl 7-(benzenesulfonyl)-2-[(3,4-dimethylphenyl)methyl]-8-oxo-4,5,8,9-tetrahydro-2H-pyrazolo[4,3-h]quinoline-3-carboxylate] |  | AI (%) additivity index (Table 6, (QRTOT-QRVX)/QRVX): 21%
6 | CCOC(=O)c1cc2c(n1Cc1ccc(I)cc1)-c1[nH]c(=O)c(S(=O)(=O)c3ccccc3)cc1CC2 [PP062, Ethyl 7-(benzenesulfonyl)-1-[(4-iodophenyl)methyl]-8-oxo-4,5,8,9-tetrahydro-1H-pyrrolo[3,2-h]quinoline-2-carboxylate] | 95 | 
7 | CCOC(=O)c1cc2c(n1Cc1ccc(C)nc1)-c1[nH]c(=O)c(S(=O)(=O)c3ccccc3)cc1CC2 [PP066, Ethyl 7-(benzenesulfonyl)-1-[(6-methylpyridin-3-yl)methyl]-8-oxo-4,5,8,9-tetrahydro-1H-pyrrolo[3,2-h]quinoline-2-carboxylate] | 62 | 
8 | CCOC(=O)c1c(Br)c2c(n1Cc1ccc(Br)cc1)-c1nc(NS(=O)(=O)c3ccccc3)ncc1CC2 [SVQ16, Ethyl 2-[(benzenesulfonyl)amino]-7-bromo-9-[(4-bromophenyl)methyl]-6,9-dihydro-5H-pyrrolo[3,2-h]quinazoline-8-carboxylate] |  | AI additivity index ((QRTOT-QRVX)/QRVX): 98%
9 | CCOC(=O)c1cc2c(n1Cc1ccc(F)cc1)-c1[nH]c(=O)c(S(=O)(=O)c3ccccc3)cc1CC2 [PP072, Ethyl 7-(benzenesulfonyl)-1-[(4-fluorophenyl)methyl]-8-oxo-4,5,8,9-tetrahydro-1H-pyrrolo[3,2-h]quinoline-2-carboxylate] | 420 | 
10 | COC(=O)c1c(Br)c2c(n1Cc1ccccc1C)-c1[nH]c(=O)c(S(=O)(=O)c3ccccc3)cc1CC2 [PP032, Methyl 3-bromo-1-(2-methylbenzyl)-8-oxo-7-(phenylsulfonyl)-4,5,8,9-tetrahydro-1H-pyrrolo[3,2-h]quinoline-2-carboxylate] | 133 | 
11 | CC(C)OC(=O)c1c(Br)cc2n1CCc1cc(S(=O)(=O)c3ccccc3)c(=O)[nH]c1-2 [QZN10, Propan-2-yl 3-(benzenesulfonyl)-9-bromo-2-oxo-1,2,5,6-tetrahydropyrrolo[1,2-h][1,7]naphthyridine-8-carboxylate] |  | AI (%) additivity index (Table 4, (QRTOT − QRVX)/QRVX): 101%
12 | Cc1cccc(Cn2c(C(=O)NC(C)(C)C)c(Br)c3c2-c2[nH]c(=O)c(S(=O)(=O)c4ccccc4)cc2CC3)c1 [PP101, 7-(Benzenesulfonyl)-3-bromo-N-tert-butyl-1-[(3-methylphenyl)methyl]-8-oxo-4,5,8,9-tetrahydro-1H-pyrrolo[3,2-h]quinoline-2-carboxamide] | 249 | 
